Series [1] concerns the target T1, DPP-IV (Homo sapiens, UniProt P27487).
T1 construct: an extract of the human colon carcinoma cell line Caco-2 is used as the DPP IV source; host or cells: Caco-2 (differentiated to induce DPP-IV expression), Nonidet-P40 solubilised extract
Description: DPP-IV assay with extract of Caco-2 cells as DPP IV source. In kind it is biochemical. The following applies: extract of human colon carcinoma cell line Caco-2 as DPP IV source, substrate AFC 100 μM, 60 minutes, ambient temperature; read-out: DPP IV inhibition IC50. As to the method: This cell line was obtained from the American Type Culture Collection (ATCC HTB 37). […] The cell extract was obtained from cells solubilised in a buffer (10 mM Tris HCl, 0.15 M NaCl, 0.04 t.i.u. aprotinin, 0.5% Nonidet-P40, pH 8.0) by centrifugation at 35,000 g for 30 minutes at 4° C. (to remove cell debris).
The DPP-IV assay was carried out as follows:
50 μl of substrate solution (AFC; AFC is amido-4-trifluoromethylcoumarin), final concentration 100 μM, were placed in black microtitre plates. 20 μl of assay buffer (final concentrations 50 mM Tris HCl pH 7.8, 50 mM NaCl, 1% DMSO) was pipetted in. The reaction was started by the addition of 30 μl of solubilised Caco-2 protein (final concentration 0.14 μg of protein per well). The test substances under investigation were typically added prediluted to 20 μl, while the volume of assay buffer was then reduced accordingly. The reaction was carried out at ambient temperature, the incubation period was 60 minutes. […] Dummy values (corresponding to 0% activity) were obtained in mixtures with no Caco-2 protein (volume replaced by assay buffer), control values (corresponding to 100% activity) were obtained in mixtures without any added substance.

Counter-ions that a name gives are not always drawn.

T1 sequence (P27487 whole entry): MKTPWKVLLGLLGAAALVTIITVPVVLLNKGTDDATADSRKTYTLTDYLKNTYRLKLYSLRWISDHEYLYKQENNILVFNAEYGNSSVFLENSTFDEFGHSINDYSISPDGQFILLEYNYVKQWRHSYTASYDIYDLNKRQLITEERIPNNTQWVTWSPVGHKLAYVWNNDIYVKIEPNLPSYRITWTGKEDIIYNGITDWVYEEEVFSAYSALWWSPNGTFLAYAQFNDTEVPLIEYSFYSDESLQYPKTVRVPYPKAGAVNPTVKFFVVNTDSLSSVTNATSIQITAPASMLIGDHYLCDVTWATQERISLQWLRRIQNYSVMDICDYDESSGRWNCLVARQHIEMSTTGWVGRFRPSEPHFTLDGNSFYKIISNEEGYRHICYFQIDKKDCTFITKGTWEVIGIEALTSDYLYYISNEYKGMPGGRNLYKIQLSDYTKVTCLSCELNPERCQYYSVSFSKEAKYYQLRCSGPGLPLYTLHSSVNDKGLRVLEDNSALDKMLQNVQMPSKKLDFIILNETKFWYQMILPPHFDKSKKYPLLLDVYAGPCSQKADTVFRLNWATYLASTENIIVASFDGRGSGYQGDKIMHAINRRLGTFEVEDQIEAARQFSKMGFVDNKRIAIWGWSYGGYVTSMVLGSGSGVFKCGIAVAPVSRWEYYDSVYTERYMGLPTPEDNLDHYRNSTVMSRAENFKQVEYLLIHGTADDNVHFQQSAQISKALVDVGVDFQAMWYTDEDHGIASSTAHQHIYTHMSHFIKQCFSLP

With `CC(C)=CCn1c(N2CCCC(N)(C(=O)N3CCCC3)C2)nc2c1c(=O)n(C)c(=O)n2C` (stereo not shown) (as salt: sodium) [Example 1(139), 1,3-dimethyl-7-(3-methyl-2-buten-1-yl)-8-[3-amino-3-(pyrrolidin-1-ylcarbonyl)-piperidin-1-yl]-xanthine], the melting point fell in the range of 159 to 160 °C.

Turning to `CC(C)=CCn1c(N[C@@H]2CCCC[C@@H]2N)nc2c1c(=O)n(C)c(=O)n2C` (relative stereo) [1(6), 1,3-dimethyl-7-(3-methyl-2-buten-1-yl)-8-[(cis-2-amino-cyclohexyl)amino]-xanthine], in series [1], the half-maximal inhibitory concentration (IC50) turned out to be 230 nM. Regarding `CN[C@H]1CCCC[C@H]1Nc1nc2c(c(=O)n(C)c(=O)n2C)n1CC=C(C)C` (relative stereo) [Example 1(77), 1,3-dimethyl-7-(3-methyl-2-buten-1-yl)-8-[cis-(2-methylamino-cyclohexyl)amino]-xanthine], the melting point fell in the range of 172.5 to 175 °C.

In the case of `CC(C)=CCn1c(N2CCCC(N)C2)nc2c1c(=O)[nH]c(=O)n2C` (stereo not shown) [1(15), 3-methyl-7-(3-methyl-2-buten-1-yl)-8-(3-amino-piperidin-1-yl)-xanthine], the concentration for half-maximal inhibition (IC50) in series [1] amounted to 624 nM.

As to `CCn1c(=O)c2c(nc(N3CCCC(N)C3)n2CC=C(C)C)n(C)c1=O` (stereo not shown) [1(16), 1-ethyl-3-methyl-7-(3-methyl-2-buten-1-yl)-8-(3-amino-piperidin-1-yl)-xanthine], in series [1], the concentration for half-maximal inhibition (IC50) came out at 78 nM. The same measure, in the same setting: the value for `CC(C)=CCn1c(N2CCCC(N)C2)nc2c1c(=O)n(C(C)C)c(=O)n2C` (stereo not shown) [1(19), 1-(2-propyl)-3-methyl-7-(3-methyl-2-buten-1-yl)-8-(3-amino-piperidin-1-yl)-xanthine] was 2770 nM.

For `C=CCn1c(=O)c2c(nc(N3CCCC(N)C3)n2CC=C(C)C)n(C)c1=O` (stereo not shown) [1(21), 1-(2-propen-1-yl)-3-methyl-7-(3-methyl-2-buten-1-yl)-8-(3-amino-piperidin-1-yl)-xanthine], the 50% inhibitory concentration (IC50) in series [1] amounted to 124 nM. `CC(C)=CCn1c(N2CCC(N)C2)nc2c1c(=O)n(C)c(=O)n2C` (stereo not shown) [Example 1(1), 1,3-dimethyl-7-(3-methyl-2-buten-1-yl)-8-(3-amino-pyrrolidin-1-yl)-xanthine] came in with a melting point of 119 °C. Compound `CC(C)=CCn1c(N2CCCC(N)C2)nc2c1c(=O)n(CCc1c(C)cc(C)cc1C)c(=O)n2C` (stereo not shown) [Example 1(36), 1-[2-(2,4,6-trimethyl-phenyl)-ethyl]-3-methyl-7-(3-methyl-2-buten-1-yl)-8-(3-amino-piperidin-1-yl)-xanthine] displayed a melting point of 153 to 154.5 °C. Still for that read-out and setting: next, `CC(C)=CCn1c(N2CCCC(N)C2)nc2c1c(=O)n(CCc1ccc(Cl)cc1Cl)c(=O)n2C` (stereo not shown) [Example 1(37), 1-[2-(2,4-dichloro-phenyl)-ethyl]-3-methyl-7-(3-methyl-2-buten-1-yl)-8-(3-amino-piperidin-1-yl)-xanthine]: 130 to 132 °C; `CC(C)=CCn1c(N2CCCC(N)C2)nc2c1c(=O)n(CCn1cccc1)c(=O)n2C` (stereo not shown) [Example 1(61), 1-[2-(pyrrol-1-yl)-ethyl]-3-methyl-7-(3-methyl-2-buten-1-yl)-8-(3-amino-piperidin-1-yl)-xanthine]: 136 to 138.6 °C; `C#CCCn1c(=O)c2c(nc(N3CCCC(N)C3)n2CC=C(C)C)n(C)c1=O` (stereo not shown) [Example 1(65), 1-(3-butyn-1-yl)-3-methyl-7-(3-methyl-2-buten-1-yl)-8-(3-amino-piperidin-1-yl)-xanthine]: 150 to 152 °C. Same read-out and setting: next, `C=CCCn1c(=O)c2c(nc(N3CCCC(N)C3)n2CC=C(C)C)n(C)c1=O` (stereo not shown) [Example 1(66), 1-(3-butene-1-yl)-3-methyl-7-(3-methyl-2-buten-1-yl)-8-(3-amino-piperidin-1-yl)-xanthine]: 111 to 112.6 °C; `CC(C)=CCn1c(N2CCC[C@H]2CN)nc2c1c(=O)n(C)c(=O)n2C` [Example 1(76), 1,3-dimethyl-7-(3-methyl-2-buten-1-yl)-8-{(S)-[2-(aminomethyl)-pyrrolidin-1-yl]}-xanthine]: 112 to 115 °C. `COc1cccc(CCn2c(=O)c3c(nc(N4CCCC(N)C4)n3CC=C(C)C)n(C)c2=O)c1` (stereo not shown) [Example 1(86), 1-[2-(3-methoxy-phenyl)-ethyl]-3-methyl-7-(3-methyl-2-buten-1-yl)-8-(3-amino-piperidin-1-yl)-xanthine] had a melting point of 118.5 to 119.5 °C. Still for that read-out and setting: next, `CC(C)=CCn1c(N2CCCC(N)C2)nc2c1c(=O)n(CCc1cccc(Br)c1)c(=O)n2C` (stereo not shown) [Example 1(87), 1-[2-(3-bromo-phenyl)-ethyl]-3-methyl-7-(3-methyl-2-buten-1-yl)-8-(3-amino-piperidin-1-yl)-xanthine]: 116.5 to 117.5 °C. Turning to `CC(C)=CCn1c(N2CCCC(N)C2)nc2c1c(=O)n(CCc1cccc(F)c1)c(=O)n2C` (stereo not shown) [Example 1(98), 1-[2-(3-fluoro-phenyl)-ethyl]-3-methyl-7-(3-methyl-2-buten-1-yl)-8-(3-amino-piperidin-1-yl)-xanthine], the melting point was in the range of 126.8 to 127.5 °C. In turn, `CC(C)=CCn1c(N2CCCC(N)C2)nc2c1c(=O)n(CCc1cccc([N+](=O)[O-])c1)c(=O)n2C` (stereo not shown) [Example 1(99), 1-[2-(3-nitro-phenyl)-ethyl]-3-methyl-7-(3-methyl-2-buten-1-yl)-8-(3-amino-piperidin-1-yl)-xanthine] showed a melting point of 120.8 to 122 °C. Same read-out and setting: next, `CC(C)=CCn1c(N2CCCC(N)C2)nc2c1c(=O)n(CCc1ccc(C)cc1)c(=O)n2C` (stereo not shown) [Example 1(100), 1-[2-(4-methyl-phenyl)-ethyl]-3-methyl-7-(3-methyl-2-buten-1-yl)-8-(3-amino-piperidin-1-yl)-xanthine]: 129 to 130.2 °C; `Cn1c(=O)c2c(nc(N3CCCC(N)C3)n2C)n(C)c1=O` (stereo not shown) [Example 1(115), 1,3,7-trimethyl-8-(3-amino-piperidin-1-yl)-xanthine]: 147 °C. Still for that read-out and setting: next, `CC(C)=CCn1c(NCC(C)(C)N)nc2c1c(=O)n(C)c(=O)n2C` [Example 1(134), 1,3-dimethyl-7-(3-methyl-2-buten-1-yl)-8-(2-amino-2-methyl-propylamino)-xanthine]: 140.5 to 143 °C; `CC(C)=CCn1c(NC[C@@H](C)N)nc2c1c(=O)n(C)c(=O)n2C` [Example 1(135), 1,3-dimethyl-7-(3-methyl-2-buten-1-yl)-8-((R)-2-amino-propylamino)-xanthine]: 141 to 144 °C. `Cn1c(=O)c2c(nc(N3CCC(N)C3)n2Cc2ccccc2)n(C)c1=O` (stereo not shown) [Example 1, 1,3-dimethyl-7-benzyl-8-(3-amino-pyrrolidin-1-yl)-xanthine] showed a melting point of 150 °C.

Consider `COC(=O)Cn1c(=O)c2c(nc(N3CCC[C@H](N)C3)n2CC=C(C)C)n(C)c1=O` [Example 2(19), 1-[(methoxycarbonyl)-methyl]-3-methyl-7-(3-methyl-2-buten-1-yl)-8-((S)-3-amino-piperidin-1-yl)-xanthine], for which the melting point was 102 to 105 °C. `CCOC(=O)c1ccc(CCn2c(=O)c3c(nc(N4CCC[C@H](N)C4)n3CC=C(C)C)n(C)c2=O)cc1` [Example 2(21), 1-{2-[4-(ethoxycarbonyl)-phenyl]-ethyl}-3-methyl-7-(3-methyl-2-buten-1-yl)-8-((S)-3-amino-piperidin-1-yl)-xanthine] had a melting point of 142 to 144 °C. The same measure, in the same setting: the value for `CC(C)=CCn1c(N2CCCC(N)C2)nc2c1c(=O)n(CCc1cc(F)cc(F)c1)c(=O)n2C` (stereo not shown) [Example 2(36), 1-[2-(3,5-difluoro-phenyl)-ethyl]-3-methyl-7-(3-methyl-2-buten-1-yl)-8-(3-amino-piperidin-1-yl)-xanthine] was 162 to 163.5 °C; that for `CC(C)=CCn1c(N2CCCC(N)C2)nc2c1c(=O)n(C)c(=O)n2C(C)C` (stereo not shown) [Example 2(60), 1-methyl-3-isopropyl-7-(3-methyl-2-buten-1-yl)-8-(3-amino-piperidin-1-yl)-xanthine] was 115 to 117 °C; that for `CC(C)=CCn1c(N2CCCC(N)C2)nc2c1c(=O)n(C)c(=O)n2CCC#N` (stereo not shown) [Example 2(62), 1-methyl-3-(2-cyano-ethyl)-7-(3-methyl-2-buten-1-yl)-8-(3-amino-piperidin-1-yl)-xanthine] was 146 to 149 °C. The compound `CC(C)=CCn1c(N(C)CC(N)C(=O)N2CCCC2)nc2c1c(=O)n(C)c(=O)n2C` (stereo not shown) [Example 2(142), 1,3-dimethyl-7-(3-methyl-2-buten-1-yl)-8-{N-[2-amino-3-oxo-3-(pyrrolidin-1-yl)-propyl]-N-methyl-amino}-xanthine] registered a melting point of 138 °C. Compound `CC(C)=CCn1c(N2CCC[C@H](N)C2)nc2c1c(=O)n(CCC(=O)O)c(=O)n2C` [Example 6(4), 1-(2-carboxy-ethyl)-3-methyl-7-(3-methyl-2-buten-1-yl)-8-((S)-3-amino-piperidin-1-yl)-xanthine] gave a melting point of 226 to 228 °C. Same read-out and setting: the value for `CC(C)=CCn1c(N2CCCC(N)C2)nc2c1c(=O)n(CCc1ccccc1)c(=O)n2CC(=O)O` (stereo not shown) [Example 6(5), 1-(2-phenyl-ethyl)-3-carboxymethyl-7-(3-methyl-2-buten-1-yl)-8-(3-amino-piperidin-1-yl)-xanthine] was 228 to 235 °C.

The melting point is the temperature, or range, at which the solid turns liquid. A word on the IC50: it is the point on the concentration scale where inhibition reaches its midpoint.

Source of the values: patent publication US20130165428A1, “XANTHINE DERIVATIVES, THE PREPARATION THEREOF AND THEIR USE AS PHARMACEUTICAL COMPOSITIONS” (Boehringer Ingelheim Pharma GmbH & Co. KG, priority 2001, published 2013).
